Reference: patent publication US7105679B2, “Heteroatom containing tetracyclic derivatives as selective estrogen receptor modulators” (priority 2001, dated 2006)
pEC50, pIC50: −log10 of the molar value.

What was measured:
[1] = molecular target: T1, human estrogen receptor α (Homo sapiens, UniProt P03372); test: Estrogen Receptor α Flash Plate Assay (binding of radiolabeled estrogen); conditions: flash plate binding, 0.5 nM radiolabeled estrogen; number in brackets = No. of determinations; NA = no detected activity at test concentration; read-out: Estrogen Receptor α in μM (No.)
T1 construct: purchased Panvera
T1 sequence (P03372 1-595): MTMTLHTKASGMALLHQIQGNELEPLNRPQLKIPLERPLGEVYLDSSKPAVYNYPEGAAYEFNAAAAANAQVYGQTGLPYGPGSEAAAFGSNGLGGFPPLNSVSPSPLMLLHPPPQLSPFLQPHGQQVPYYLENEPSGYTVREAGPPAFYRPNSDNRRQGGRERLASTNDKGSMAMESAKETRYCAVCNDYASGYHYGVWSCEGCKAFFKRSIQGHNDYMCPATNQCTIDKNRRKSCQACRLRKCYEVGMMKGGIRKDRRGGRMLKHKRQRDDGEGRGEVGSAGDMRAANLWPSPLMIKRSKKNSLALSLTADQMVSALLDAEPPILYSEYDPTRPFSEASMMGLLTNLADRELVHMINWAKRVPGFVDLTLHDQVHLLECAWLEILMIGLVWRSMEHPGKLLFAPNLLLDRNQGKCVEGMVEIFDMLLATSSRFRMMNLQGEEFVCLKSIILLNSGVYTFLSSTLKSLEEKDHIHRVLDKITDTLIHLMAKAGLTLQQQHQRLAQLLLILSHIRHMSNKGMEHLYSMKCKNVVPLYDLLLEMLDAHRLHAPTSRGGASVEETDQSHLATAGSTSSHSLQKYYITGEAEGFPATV

[2] = molecular target: T2, hER-β (Homo sapiens, UniProt Q92731); test: Estrogen Receptor β Fluorescence Polarization Assay (binding of Fluormone ES2); conditions: fluorescence polarization binding, Fluormone ES2; number in brackets = No. of determinations; NA = no detected activity at test concentration; read-out: Estrogen Receptor β in μM (No.)
T2 construct: purchased Panvera
Source text: This assay monitors binding of a fluorescent analog of estrogen (Fluormone ES2, Panvera) to the estrogen receptor. Plates are read in a fluorometer that can be set to polarization mode. A decrease in […] relative to vehicle control is an indication of binding of a compound to the receptor.
It is crucial to avoid introduction of air bubbles into the reaction in each well of the 96 well plate throughout this procedure. (Bubbles on the surface of the reaction disrupt light flow, affecting the polarization reading.) However, it is also crucial to effectively mix the reaction components upon addition to the well.
On ice, a 2× standard mixture of Assay Buffer (Panvera), 10 nM DTT and 40 nM ES2 was prepared. On ice, a 2× reaction mixture of Assay Buffer (Panvera), and 20 nM hER-β (Panvera) and 40 nM ES2 was also prepared.
Dilutions of test compound were prepared in 30% (v/v) dimethyl sulfoxide/50 mM HEPES, pH 7.5. At this point, the dilutions were 40× the final required concentration.
The standard mixture at 50 μL was then added to each well. The reaction mixture at 48 μL was added to all wells. The compound dilution at 2.5 μL was added to the appropriate wells. The reaction mixtures were mixed using a manual pipette, a roll of aluminum foil adhesive cover was placed on the plate and the plate incubated at room temperature for 1 hour.

[3] = system: MCF-7 cells; test: MCF-7 Cell Proliferation Assay (14C-thymidine, agonist and antagonist mode); format: cell-based; conditions: Homo sapiens, number in brackets = number of tests, NA = no detected activity at test concentration; for pEC50: MCF7, agonist mode; for pIC50: MCF7, antagonist mode with 10 nM 17β-estradiol
[4] = system: Ishikawa cells; test: Alkaline Phosphatase Assay in Human Endometrial Ishikawa Cells (agonist and antagonist mode); format: cell-based; conditions: Homo sapiens, number in brackets = number of tests, NA = no detected activity at test concentration; for pEC50: agonist mode; for pIC50: antagonist mode with 10 nM 17β-estradiol

T2 sequence (Q92731 whole entry): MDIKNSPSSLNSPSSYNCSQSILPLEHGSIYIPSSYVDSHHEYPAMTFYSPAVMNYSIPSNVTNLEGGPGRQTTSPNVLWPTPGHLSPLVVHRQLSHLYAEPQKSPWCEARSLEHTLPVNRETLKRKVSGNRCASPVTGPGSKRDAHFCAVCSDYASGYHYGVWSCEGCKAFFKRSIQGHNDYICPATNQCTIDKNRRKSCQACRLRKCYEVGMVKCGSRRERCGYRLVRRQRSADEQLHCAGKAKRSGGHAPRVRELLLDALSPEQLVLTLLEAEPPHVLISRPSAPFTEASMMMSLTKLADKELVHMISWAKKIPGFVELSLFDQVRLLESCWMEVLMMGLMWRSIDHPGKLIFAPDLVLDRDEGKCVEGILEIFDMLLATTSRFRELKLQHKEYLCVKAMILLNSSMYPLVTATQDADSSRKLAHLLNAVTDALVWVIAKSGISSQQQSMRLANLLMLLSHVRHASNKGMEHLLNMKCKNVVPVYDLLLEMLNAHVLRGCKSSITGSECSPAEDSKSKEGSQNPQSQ

SMILES | melting point [°C] | IC50 [1] [µM] | IC50 [2] [µM] | pEC50 [3] | pIC50 [3] | pEC50 [4] | pIC50 [4]
CC(C)(C)[Si](C)(C)Oc1ccc2c(c1)OCc1c-2c(=O)oc2cc(O[Si](C)(C)C(C)(C)C)ccc12 | 150 to 151 | – | – | – | – | – | –
CC(C)(C)[Si](C)(C)Oc1ccc2c(c1)OC(O)C1=C2COc2cc(O[Si](C)(C)C(C)(C)C)ccc21 (centres unmarked) | 188 to 190 | – | – | – | – | – | –
CC(C)(C)[Si](C)(C)Oc1ccc2c(c1)OCc1c-2c(=O)oc2cc(F)ccc12 | 197 to 198 | – | – | – | – | – | –
CC(C)(C)[Si](C)(C)Oc1ccc2c(c1)OCC1=C2C(O)Oc2cc(F)ccc21 (centres unmarked) | 166 to 167 | – | – | – | – | – | –
O=c1oc2cc(O)ccc2c2c1-c1ccc(O)cc1OC2 [Compound 1, 2,8-Dihydroxy-11H-chromeno[4,3-c]chromen-5-one] | > 350 | 0.505 | 0.061 | 5.92 | < 5.00 | 6.89 | < 5.00
COc1ccc2c(c1)OCc1c-2c(=O)oc2cc(OC)ccc12 [Compound 2, 2,8-DiMethoxy-11H-chromeno[4,3-c]chromen-5-one] | 200 to 201 | – | – | < 5.00 | < 5.00 | < 5.00 | < 5.00
O=c1oc2cc(F)ccc2c2c1-c1ccc(O)cc1OC2 [Compound 37, 8-Fluoro-2-hydroxy-11H-chromeno[4,3-c]chromen-5-one] | 259 to 260 | – | – | – | – | – | –
CC(C)(C)C(=O)Oc1ccc2c(c1)OC(C)(c1ccc(OCCCN3CCCCC3)cc1)C1=C2COc2cc(OC(=O)C(C)(C)C)ccc21 (centres unmarked) [Compound 43, 2,2-Dimethyl-propionic acid 8-(2,2-dimethyl-propionyloxy)-11-methyl-11-[4-(3-piperidin-1-yl-propoxy)-phenyl]-5,11-dihydro-chromeno[4,3-c]chromen-2-yl ester] | – | 0.62 | 0.165 | < 5.00 | < 6.00 | < 5.00 | 5.80
